Data on one substance can be found in patent publication US9012152B2, “Anti-bacterial peptides and methods of treating diseases using same” (Yissum Research Development Company of the Hebrew …, priority 2007, dated 2015).

One data set in a line: Effect of pH on EDF. It is filed as physicochemical. The following applies: supernatant incubated at pH 3, 5, 7, 9 or 11 for 2 hours; extreme pH; readout: restoring mazEF-mediated cell death. How it is done: Effect of pH on EDF: Supernatants from the “donor” cultures described above were incubated at pH 3, 5, 7, 9 or 11 for 2 hours and titrated to PH 7. Their ability to restore mazEF-mediated cell death to a diluted culture was determined as described above.

The next data set relates to K-38. The experiment in a line: EDF response of recipient culture, strain K-38. It is filed as cell-based, E. coli. The following applies: rifampicin 10 μg/ml. The method, then: (§1) Comparison of EDF response in MC4100relA^+, K38, W3110, and MG1655 E. coli strains: Cultures of MC4100relA^+, K38, W3110, and MG1655 E. coli were grown as described in Example 1. When the cultures reached a density of 2.5×10^8 cells/ml, duplicate samples were removed and diluted to 3×10^4 cells/ml in pre-heated supernatant of a dense culture of MC4100relA^+(WT) which had been titrated to have an EDF concentration of either 1 unit/ml or 10 units/ml (quantified as described in Example 3). After incubation without shaking at 37° C. for 10 minutes, rifampicin (10 μg/ml) was added, and the culture was incubated without shaking at 37° C. for an additional 10 minutes. Cells were centrifuged in 14,000 rpm for 5 minutes and washed in pre-heated saline. Then, the cells were diluted, plated on LB plates, and incubated at 37° C. for 12 hours. Cell survival was calculated by comparing the colony-forming units (CFUs) of treated cells to those of untreated cells.

For data set [1], the system named is E. coli MC4100relA^+wt (WT) and MC4100relA^+ΔmazEF. The experiment in a line: Killing of E. coli cells by chemically synthesized EDF itself. The data set is classed as cell-based. Particulars: chemically synthesized EDF by itself (without antibiotic), 3 hours. The method, then: Killing of E. coli cells by chemically synthesized EDF itself: E. coli MC4100relA^+wt (WT) and MC4100relA^+ΔmazEF (ΔmazEF) were grown for 12 hours in M9 medium with shaking (160 rpm). Then, cells were diluted 1:100 in M9 medium and were grown with shaking (160 rpm) at 37° C. to a mid-logarithmic phase (OD600=0.6). Samples were removed from the cultures at a density of 2.5×10^8 (Dense), centrifuged in 14000 rpm for 5 minutes and washed in pre-heated M9. The samples were applied with different concentrations of EDF, incubated for 3 hours at 37° C. without shaking. Then, cells were centrifuged in 14000 rpm for 5 minutes and washed in pre-heated saline. Then, the cells were diluted, plated on LB plates and incubated at 37° C. for 12 hours. Cell killing was calculated by comparing the number of the colony-forming ability of cells treated by stressful conditions to those of the cells that were not exposed to the treatment.

In another data set the test system is W3110. As to the kind of experiment: EDF response of recipient culture, strain W3110. The following applies: rifampicin 10 μg/ml. It is filed as cell-based, E. coli. How it is done:
as §1

Data set [2] deals with E. coli MC4100relA^+wt(WT) and MC4100relA^+ΔmazEF. As to the kind of experiment: Killing of E. coli cells by chemically synthesized EDF in combination with other antibiotic. The data set is classed as cell-based. Particulars: diluted culture. How it is done:
Killing of E. coli cells by chemically synthesized EDF in combination with other antibiotic: E. coli MC4100relA^+wt(WT) and MC4100relA^+ΔmazEF (ΔmazEF) were grown for 12 hours in M9 medium with shaking (160 rpm). Then, cells were diluted 1:100 in M9 medium and were grown with shaking (160 rpm) at 37° C. to a mid-logarithmic phase (OD600=0.6). Duplicate samples were removed from the cultures at a density of 2.5×10^8 (Dense), diluted in pre-heated M9 medium to the density of 3×10^4 (M9) or diluted in pre-heated M9 applied with different concentrations of EDF. The samples were incubated for 10 minutes at 37° C. without shaking Then rifampicin (10 μg/ml) was added and the cells were incubated for 10 minutes without shaking. The cells were centrifuged in 14000 rpm for 5 minutes and washed in pre-heated saline. Then, the cells were diluted, plated on LB plates and incubated at 37° C. for 12 hours. Cell killing was calculated by comparing the number of the colony-forming ability of cells treated by stressful conditions to those of the cells that were not exposed to the treatment.

Data set [3] has as its system E. Coli MC4100relA^+ cells, K38 cells and W3110. The experiment in a line: Chemically synthesized EDF restores mazEF mediated cell death to a dilute culture. It is filed as cell-based. The following applies: synthetic EDF 2.5 ng/ml. How it is done:
Chemically synthesized EDF restores mazEF mediated cell death to a dilute culture: E. Coli MC4100relA^+ cells, K38 cells and W3110 and ΔmazEF cells were grown as described in Example 1 herein above. At a density of 2.5×10^8 cells/ml, samples were either not diluted (dense) or diluted to 3×10^4 cells/ml in pre-warmed M9 medium (Diluted culture) or in a pre-warmed M9 applied with chemically synthesized EDF (2.5 ng/ml; diluted culture+EDF). For FIGS. 12A-C, samples were incubated with rifampicin as in FIG. 2A. For FIG. 13A, samples were incubated in trimethorpin (2 μg/ml) for 1 hour and for FIG. 13B samples were incubated in chlorapmphenicol (50 μg/ml) for 20 minutes.

The next data set relates to MC4100relA^+. As to the kind of experiment: EDF response of recipient culture, strain MC4100relA^+. The data set is classed as cell-based, E. coli. Particulars: rifampicin 10 μg/ml. The method, then: as §1
The target of another data set is proteinase K (Parengyodontium album, UniProt P06873). The experiment in a line: Effect of proteinase K on EDF. The following applies: supernatant with proteinase K-agarose beads, 37° C., 2 hours. The method, then: Effect of proteinase K on EDF: Supernatants from the “donor” cultures described above were incubated with shaking at 37° C. for 2 hours as such or with agarose bease or with proteinase K-agarose beads. The beads were then removed by centrifugation at 14,000 rpm for 10 minutes. Their ability to restore mazEF-mediated cell death to a diluted culture was determined as described above.

For a further data set, the system named is E. coli MC4100relA^+. As to the kind of experiment: E. coli mazEF-mediated cell death in the presence of synthesized wild type and mutated EDF. The data set is classed as cell-based. The following applies: 1 μg/ml of peptide; rifampicin 10 μg/ml, 10 minutes; diluted culture 3×10^4. How it is done:
E. coli mazEF-mediated cell death in the presence of synthesized wild type (WT) and mutated EDF. E. coli MC4100relA^+t(WT) and MC4100relA^+ΔmazEF (ΔmazEF) were grown for 12 hours in M9 medium with shaking (160 rpm). Then, cells were diluted 1:100 in M9 medium and were grown with shaking (160 rpm) at 37° C. to a mid-logarithmic phase (OD600=0.6). Duplicate samples were removed from the cultures at a density of 2.5×10^8 (Dense), diluted in pre-heated M9 medium to the density of 3×10^4 (M9) or diluted in pre-heated M9 applied with 1 μg/ml of one of the synthesized EDFs (SEQ ID NOs: 1-6). The samples were incubated for 10 minutes at 37° C. without shaking. Then rifampicin (10 μg/ml) was added and the cells were incubated for 10 minutes without shaking. The cells were centrifuged in 14000 rpm for 5 minutes and washed in pre-heated saline. Then, the cells were diluted, plated on LB plates and incubated at 37° C. for 12 hours. Cell killing was calculated by comparing the number of the colony-forming ability of cells treated by stressful conditions to those of the cells that were not exposed to the treatment.

Data set [4] in a line: Effect of temperature on EDF. The following applies: supernatant incubated 10 minutes; high temperature (80° C. to 100° C.). The data set is classed as physicochemical. The method, then:
Effect of temperature on EDF: Supernatants from the “donor” cultures described above were incubated at 37° C., 60° C., 80° C., or 100° C. for 10 minutes and cooled to 37° C. Their ability to restore mazEF-mediated cell death to a diluted culture was determined as described above.

In another data set the test system is MG1655. The experiment in a line: EDF response of recipient culture, strain MG1655. The data set is classed as cell-based, E. coli. The following applies: rifampicin 10 μg/ml. How it is done: as §1
Where [5] appears, read: EDF 1 units/ml (titrated supernatant).
[6] abbreviates: EDF 10 units/ml (titrated supernatant).

Bounds are passed on as bounds.

proteinase K, sequence (P06873 106-384): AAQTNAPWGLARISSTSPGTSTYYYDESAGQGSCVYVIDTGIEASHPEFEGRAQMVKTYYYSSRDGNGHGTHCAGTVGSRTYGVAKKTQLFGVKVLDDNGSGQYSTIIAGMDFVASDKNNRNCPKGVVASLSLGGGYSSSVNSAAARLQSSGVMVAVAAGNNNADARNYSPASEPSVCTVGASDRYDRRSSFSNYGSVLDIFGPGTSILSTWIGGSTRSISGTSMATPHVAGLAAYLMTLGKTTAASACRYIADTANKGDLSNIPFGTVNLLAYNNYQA

With “Asn-Asn-Trp-Asn-Asn (NNWNN; Chemically synthesized WT EDF) [linear pentapeptide NNWNN, extracellular death factor of E. coli; purified from supernatant and chemically synthesized]”, the “sensitivity of EDF to pH” value in “Effect of pH on EDF” is recorded as “sensitive”. Further, the “% Survival of recipient culture in response to added EDF” value with K-38 (setting [5]) is recorded as 17.0 ± 4.2%; with K-38 (setting [6]) it was 12.0 ± 6.6%; in the data set with W3110 (setting [5]) it was 15.0 ± 3.6%; in the data set with W3110 (setting [6]) it was 14.0 ± 2.3%; in the data set with MC4100relA^+ (EDF 1 units/ml (titrated supernatant of dense MC4100relA^+ culture)) it was 8.0 ± 5.0%; in the data set on MC4100relA^+ (setting [6]), 7.0 ± 2.0%. Further, the figures for the “% Survival of recipient culture in response to added EDF” value in the data set on MG1655 (setting [5]) and in the data set with MG1655 (setting [6]) were 77.8 ± 3.4% and 19.6 ± 4.5%, respectively. Also, the “concentrations of EDF at which cell death is mazEF-dependent” value in [1] fell in the range of 1 to 10 µg/mL; in data set [2] (chemically synthesized EDF in conjunction with an antibiotic), 1 to 500 ng/mL. Also, the “concentrations of EDF at which cell death is mazEF-independent” value in [1] was more than 10 µg/mL; in [2] (chemically synthesized EDF in conjunction with an antibiotic (rafamycin)), “over 500 ng/ml”. Besides, the “mazEF-mediated cell death in a diluted culture” value in data set [3] (induced by chloramphenicol 50 μg/ml, 20 minutes) is on record as “enhanced mazEF-mediated cell death”; in data set [3] (induced by rifampicin in different E. Coli strains (MC4100relA^+, K38, W3110)), “enhanced mazEF-mediated cell death”; in data set [3] (induced by trimethoprim 2 μg/ml, 1 hour) it was “enhanced mazEF-mediated cell death”. Also, in the data set with proteinase K, the “sensitivity of EDF to proteinase K” value is on record as “sensitive”. In addition, the “% Cell killing following mazEF induction with rifampicin” value in the data set on E. coli MC4100relA^+ is listed as 99.5%. In addition, in data set [4], the “sensitivity of EDF to temperature” value is “sensitive”.
